“Also recorded” adds a separate entry of the source.
How the values were obtained:
ROCK1 = settings: introduction, literature values; read-out: ROCK1 IC50 of approved ROCK inhibitors; cited from earlier work
ROCK2 = settings: introduction, literature values; read-out: ROCK2 IC50 of approved ROCK inhibitors; cited from earlier work
hROCK1 = hROCK1 (Homo sapiens, UniProt Q13464); assay: HotSpot Kinase Assay, ROCK1 inhibition (Reaction Biology Corp.); type: biochemical
Description: (§1) The HotSpot Kinase Assay was used for compound screening on protein kinases, as already reported. The assay was performed in a base reaction buffer containing 20 mM Hepes (pH 7.5), 10 mM MgCl2, 1 mM EGTA, 0.01% Brij-35, 0.02 mg/mL BSA, 0.1 mM Na3VO4, 2 mM DTT, and 1% DMSO, with the required cofactors added individually to each kinase reaction. The substrate was prepared in freshly made base reaction buffer, and cofactors were added accordingly. The indicated kinase was then delivered into the substrate solution and gently mixed. Test compounds, dissolved in 100% DMSO, were added to the kinase reaction mixture using acoustic technology (Echo550; nanoliter range), followed by incubation for 20 min at room temperature. The reaction was initiated by adding ^33P-ATP (1 μM) and incubating for 2 h at room temperature. Kinase activity was detected using the P81 filter-binding method.

hROCK2 = hROCK2 (Homo sapiens, UniProt O75116); assay: HotSpot Kinase Assay, ROCK2 inhibition (Reaction Biology Corp.); type: biochemical
Description: as §1

[1] = previously reported; cited from earlier work
PKCα = PKCα (Homo sapiens, UniProt P17252); assay: HotSpot Kinase Assay, AGC kinase selectivity, PKCα; type: biochemical
Description: as §1

C6 cells = assay: MTT cell viability, C6 glioma cell line; type: cell-based; settings: 0.1 to 5 μM, 24 h
Description: (§2) Prior to the experiments, SH-SY5Y cells were cultured in DMEM/F12 plus 10% FBS (Fetal bovine serum, Invitrogene). […] The cells were incubated for 24 h under these conditions.
(§3) C6 and SH-SY5Y cells were plated in a 96-well plate with 1 × 10^4 cells per well. Cell morphology was observed using an EVOS phase-contrast microscope (Invitrogen, ThermoFisher Scientific, USA), and viability was evaluated using a 3-[4,5-dimethylthiazol-2-yl]-2,5-diphenyltetrazolium bromide (MTT) reduction assay. After 24 h of treatment, cells were incubated with 0.5 mg/mL MTT dye for 3 h at 37 °C and 5% CO2. This assay evaluates the labeling activity of mitochondrial dehydrogenases such as succinate dehydrogenase by reducing MTT (yellow) to a purple formazan salt. The culture media were removed, and the crystals were dissolved in 150 μL DMSO. The intensity of formazan was measured using a GloMax spectrophotometer (Promega) at a wavelength of 560 nm.

SH-SY5Y cells = assay: MTT cell viability, SH-SY5Y cell line; type: cell-based; settings: 0.1 to 5 μM, 24 h
Description: as §2, §3

[2] = tested on: murine primary astrocytes; assay: GFAP and C3 immunocytochemistry in LPS-treated primary cortical astrocytes; type: cell-based, C57BL/6 mice (Mus musculus); settings: 24 h; for C3 immunostaining in LPS-treated astrocyte cultures: 1 μM ruxolitinib, LPS 10 μg/mL
Description: Primary cortical astrocyte cultures were prepared from brains of P0–3 C57BL/6 mice as described by Matias et al. The meninges of the brain were removed to cortex desiccation in Gey’s buffer, and the cerebral cortex was maintained in DMEM/F12, supplemented with 10% FBS. […] After 24 h, cultures were washed and fixed.
Astrocyte cultures were fixed with 4% PFA in phosphate-buffered saline (PBS, pH 7.4) for 15 min, and nonspecific sites were blocked with 3% BSA, 5% normal goat serum, and 0.2% Triton X-100 diluted in PBS for 1 h, before incubation with the rabbit anti-GFAP (1:1,000, DAKO Cytomation, Cat. Z0334) and the rat anti-C3 (1:100, Abcam, Cat. ab11862) at 4 °C overnight. Subsequently, the cells were thoroughly washed with PBS and incubated with secondary antibodies at room temperature for 2 h.

[3] = tested on: mouse hippocampal neurons; settings: primary cultures of mouse hippocampal neurons; cited from earlier work

Chain of hROCK1 (Q13464 whole entry): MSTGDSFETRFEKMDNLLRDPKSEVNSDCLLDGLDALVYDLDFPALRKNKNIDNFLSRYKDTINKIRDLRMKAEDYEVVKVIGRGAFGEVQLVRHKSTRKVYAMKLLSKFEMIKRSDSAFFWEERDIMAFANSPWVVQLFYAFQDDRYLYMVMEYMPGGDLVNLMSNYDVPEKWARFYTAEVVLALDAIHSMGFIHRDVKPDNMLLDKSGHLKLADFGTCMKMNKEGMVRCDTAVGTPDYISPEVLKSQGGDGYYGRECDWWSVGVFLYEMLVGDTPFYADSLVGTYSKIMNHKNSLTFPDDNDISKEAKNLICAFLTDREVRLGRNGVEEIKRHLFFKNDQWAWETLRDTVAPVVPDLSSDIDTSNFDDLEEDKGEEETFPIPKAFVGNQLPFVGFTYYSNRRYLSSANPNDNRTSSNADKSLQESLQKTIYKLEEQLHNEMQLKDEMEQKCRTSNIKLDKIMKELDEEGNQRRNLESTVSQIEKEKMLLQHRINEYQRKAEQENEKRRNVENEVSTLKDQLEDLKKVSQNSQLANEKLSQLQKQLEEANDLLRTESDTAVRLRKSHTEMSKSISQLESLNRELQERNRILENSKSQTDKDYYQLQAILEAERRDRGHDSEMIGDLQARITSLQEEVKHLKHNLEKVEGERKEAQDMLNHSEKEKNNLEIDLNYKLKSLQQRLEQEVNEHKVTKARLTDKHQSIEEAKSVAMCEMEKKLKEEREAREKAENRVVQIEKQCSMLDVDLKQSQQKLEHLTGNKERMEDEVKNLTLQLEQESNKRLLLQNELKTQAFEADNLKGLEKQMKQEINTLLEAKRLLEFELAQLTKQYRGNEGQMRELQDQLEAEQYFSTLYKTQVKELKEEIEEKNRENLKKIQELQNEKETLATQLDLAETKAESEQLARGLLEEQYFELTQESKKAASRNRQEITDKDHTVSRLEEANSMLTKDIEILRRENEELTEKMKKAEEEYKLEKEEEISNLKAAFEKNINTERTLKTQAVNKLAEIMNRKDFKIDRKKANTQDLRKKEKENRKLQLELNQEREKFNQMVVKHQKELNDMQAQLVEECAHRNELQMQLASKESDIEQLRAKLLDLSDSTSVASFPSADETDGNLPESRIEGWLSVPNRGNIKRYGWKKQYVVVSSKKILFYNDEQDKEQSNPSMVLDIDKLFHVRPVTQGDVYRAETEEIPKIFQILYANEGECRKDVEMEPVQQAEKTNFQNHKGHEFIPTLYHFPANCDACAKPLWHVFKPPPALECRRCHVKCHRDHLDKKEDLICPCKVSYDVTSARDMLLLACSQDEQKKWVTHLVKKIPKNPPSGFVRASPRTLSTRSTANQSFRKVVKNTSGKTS
Chain of hROCK2 (O75116 whole entry): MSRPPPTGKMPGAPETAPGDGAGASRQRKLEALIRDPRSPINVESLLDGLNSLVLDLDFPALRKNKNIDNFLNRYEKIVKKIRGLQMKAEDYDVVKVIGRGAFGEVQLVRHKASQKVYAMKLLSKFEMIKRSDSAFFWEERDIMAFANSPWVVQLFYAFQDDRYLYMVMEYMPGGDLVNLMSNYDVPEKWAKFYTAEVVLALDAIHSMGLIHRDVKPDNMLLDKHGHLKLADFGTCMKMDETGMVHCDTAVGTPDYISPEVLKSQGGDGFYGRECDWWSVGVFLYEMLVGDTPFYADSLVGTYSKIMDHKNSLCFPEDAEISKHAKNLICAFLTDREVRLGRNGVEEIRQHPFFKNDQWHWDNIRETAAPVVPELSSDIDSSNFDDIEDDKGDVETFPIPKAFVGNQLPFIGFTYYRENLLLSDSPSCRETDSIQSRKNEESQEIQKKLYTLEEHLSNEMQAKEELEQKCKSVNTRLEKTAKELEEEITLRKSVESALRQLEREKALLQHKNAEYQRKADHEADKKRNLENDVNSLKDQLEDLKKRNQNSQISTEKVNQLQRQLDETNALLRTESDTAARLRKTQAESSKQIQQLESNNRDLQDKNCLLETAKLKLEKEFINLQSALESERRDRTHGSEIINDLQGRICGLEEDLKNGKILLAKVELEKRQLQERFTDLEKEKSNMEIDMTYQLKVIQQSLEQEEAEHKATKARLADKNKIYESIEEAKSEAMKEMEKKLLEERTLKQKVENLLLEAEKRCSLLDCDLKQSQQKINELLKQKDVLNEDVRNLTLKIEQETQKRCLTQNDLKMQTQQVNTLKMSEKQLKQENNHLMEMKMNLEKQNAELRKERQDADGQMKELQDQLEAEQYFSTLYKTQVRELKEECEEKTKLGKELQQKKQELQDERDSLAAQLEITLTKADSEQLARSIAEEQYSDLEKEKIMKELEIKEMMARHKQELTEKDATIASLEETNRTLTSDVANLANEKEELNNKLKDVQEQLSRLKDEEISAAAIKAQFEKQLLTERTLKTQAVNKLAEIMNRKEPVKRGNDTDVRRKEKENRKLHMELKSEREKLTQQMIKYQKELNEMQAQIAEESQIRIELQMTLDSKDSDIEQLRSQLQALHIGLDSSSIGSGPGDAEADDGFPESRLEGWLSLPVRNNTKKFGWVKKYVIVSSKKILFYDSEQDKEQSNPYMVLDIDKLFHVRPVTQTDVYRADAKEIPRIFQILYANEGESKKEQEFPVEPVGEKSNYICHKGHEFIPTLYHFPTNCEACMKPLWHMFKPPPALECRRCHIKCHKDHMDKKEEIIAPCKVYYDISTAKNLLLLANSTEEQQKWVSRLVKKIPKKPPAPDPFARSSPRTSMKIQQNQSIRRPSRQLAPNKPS

SMILES	IC50 (hROCK1)	IC50 (hROCK2)	IC50 (ROCK1)	IC50 (ROCK2)	other results
C[C@H]1CNCCCN1S(=O)(=O)c1cccc2cncc(F)c12 [Ripasudil (3), Ripasudil]			51 nM	19 nM	
O=C1CCc2cc(OCCCCc3nnnn3C3CCCCC3)ccc2N1 [Cilostazole]					ROCK1 % (30 µM), printed under IC50 ROCK1 head (hROCK1; 30 µM): 3%; ROCK2 % (30 µM), printed under IC50 ROCK2 head (hROCK2; 30 µM): 8%
CCS(=O)(=O)N1CC(CC#N)(n2cc(-c3ncnc4[nH]ccc34)cn2)C1 [Baricitinib (37), baricitinib]	19 nM	11 nM			crossing of the blood-brain barrier (BBB) [1]: cross the blood-brain barrier (BBB)
N#CC[C@H](C1CCCC1)n1cc(-c2ncnc3[nH]ccc23)cn1 [Ruxolitinib (36), ruxolitinib]					IC50 (PKCα): 1250 nM; cell viability (MTT), C6 glioma (astrocytic cell line) (C6 cells; listed as ruxolitinib): No significant impact on the viability; cell viability (MTT), C6 glioma (astrocytic cell line) (C6 cells; listed as ruxolitinib (36)): did not adversely affect the viability; also recorded: does not affect the viability; cell viability (MTT), SH-SY5Y (neuronal cell line) (SH-SY5Y cells; listed as ruxolitinib): No significant impact on the viability; cell viability (MTT), SH-SY5Y (neuronal cell line) (SH-SY5Y cells; listed as ruxolitinib (36)): did not adversely affect the viability; also recorded: does not affect the viability; C3 immunostaining in LPS-treated astrocyte cultures ([2]; listed as ruxolitinib): decreased C3 immunostaining; also recorded: reversed this event; C3 immunostaining in LPS-treated astrocyte cultures ([2]; listed as ruxolitinib (36)): reduce C3 immunolabeling; GFAP intermediate filament organization and process extension of astrocytes ([2]; 1 μM): did not impact intermediate filament organization and process extension; crossing of the blood-brain barrier (BBB) [1]: cross the blood-brain barrier (BBB)
O=S(=O)(c1cccc2cnccc12)N1CCCNCC1 [Fasudil (2), Fasudil]			[…]		levels of Tau phosphorylation [3]: decreased the levels of Tau phosphorylation
O=C(CCNNC(=O)c1ccncc1)NCc1ccccc1 [Nialamide (40), nialamide]	18800 nM	29200 nM			

Second part, led by results:

IC50 (hROCK1)	IC50 (hROCK2)	SMILES	IC50 (ROCK1)	IC50 (ROCK2)	other results
12900 nM	856 nM	COc1cc2nccc(Oc3ccc(NC(=O)Nc4cc(C)on4)c(Cl)c3)c2cc1OC [Tivozanib (39), tivozanib]			selectivity for ROCK2 over ROCK1 (hROCK2; from the IC50 values): 15 fold
51500 nM	18600 nM	Cc1cc(Nc2ncnc3ccc(NC4=NC(C)(C)CO4)cc23)ccc1Oc1ccn2ncnc2c1 [Tucatinib (41), tucatinib]			

From paper PMC12242638, “Drug Repurposing by Virtual Screening: Identification of New Already Approved ROCK Inhibitors as Promising Drugs to Target Neurodegeneration” (ACS Omega, 2025)
